Data from paper PMC2664101 (Journal of medicinal chemistry, 2009).
Like-named read-outs stand apart in the source and are kept apart here.

Columns and labels:
[1] = system: hypoxia-ischemia induced cerebral palsy; settings: cited from earlier work; for fetal brain NOS activity in vivo / cardiovascular effects / distribution to fetal brain / eNOS regulated blood pressure / toxicity: rabbit; for hypoxia-ischemia induced deaths / number of newborn kits exhibiting symptoms of cerebral palsy: rabbit model for cerebral palsy
[2] = molecular target: rat nNOS (Rattus norvegicus, UniProt P29476); settings: comparing 27 with 16
[3] = following maternal administration

SMILES | fetal brain NOS activity in vivo [1, 3] | hypoxia-ischemia induced deaths [1] | number of newborn kits exhibiting symptoms of cerebral palsy [1] | cardiovascular effects ([1]; in vivo) | distribution to fetal brain ([1]; in vivo) | eNOS regulated blood pressure ([1]; in vivo) | toxicity ([1]; in vivo) | toxicity [1, 3] | drop in nNOS inhibitory potency [2]
Cc1cc(N)nc(C[C@H]2CNC[C@H]2NCCNCCc2cccc(F)c2)c1 [compound 26] | inhibit fetal brain NOS activity in vivo | prevent hypoxia-ischemia induced deaths | reduce the number of newborn kits exhibiting symptoms of cerebral palsy | without cardiovascular effects | distribute to fetal brain | without affecting the eNOS regulated blood pressure | non-toxic |  | 
Cc1cc(N)nc(C[C@H]2CNC[C@H]2NCCNCc2ccc(Cl)cc2)c1.Cl [compound 16] | inhibit fetal brain NOS activity in vivo | prevent hypoxia-ischemia induced deaths | reduce the number of newborn kits exhibiting symptoms of cerebral palsy | without cardiovascular effects | distribute to fetal brain | without affecting the eNOS regulated blood pressure |  | non-toxic | 
Cc1cc(C[C@H]2CNC[C@H]2NCCNCc2ccc(Cl)cc2)cc(N)n1.Cl (racemic) [compound 27, N^1-{(±)-4′-[(2”-amino-6”-methylpyridin-4”-yl)methyl]pyrrolidin-3′-yl}-N^2-(4′-chlorobenzyl)ethane-1,2-diamine tetrahydrochloride] |  |  |  |  |  |  |  |  | more than 200 fold
